These results are taken from patent US6552083B1, “Agents inhibiting chronic rejection reactions after organ transplantation” (Kissei Pharmaceutical Co., Ltd., priority 1999, dated 2003).

In one test the test system is transplanted heart. The test can be described thus: Test for evaluating rejection in transplant organ after organ transplantation (infiltration of lymphocytes into the tissue). The class given is in vivo, mice (DBA/2 donor, B10D2 recipient). From the text: In a transplantation test, 4 to 6-week-old DBA/2 male mice each weighing 20 to 25 g (available from Charles River Laboratories) were used an donor animals, and 4 to 6-week-old B10D2 male mice each weighing 20 to 25 g (ava from Charles River Laboratories) were used as recipient animals. From three days before testing, mice in a control group were fed on a standard diet, and mice in a drug-treated group were given a 0.25% or 0.5% tranilast-containing diet (CE-2). On the day of testing, the heart was excised from a donor mouse and transplanted into the abdomen of a recipient mouse in accordance with the procedures described in the literature (Science, vol. 255, pp. 1125-1127 (1992)). Fourteen and twenty-eight days from the transplantation, the transplanted heart was excised and placed in formalin. Three specimens (thickness: […]) were sliced from different sites of the excised heart. Each slice was stained with Elastica van Geison stain, and the coronary arteries were observed under a microscope to calculate a vascular stenosis ratio according to the following equation: The degree of rejection in the hearts transplanted to and excited from the recipient mice in the same manner as in Example 1 was evaluated in terms of the degree of infiltration of lymphocytes into the tissue in accordance with the Working Formation of the International Society for Heart and Lung Transplantation and with the following criteria. 0 . . . No infiltration of lymphocytes into the tissue was seen. 1 . . . Slight infiltration of lymphocytes into the tissue was observed. 2 . . . Medium infiltration of lymphocytes into the tissue was observed. 3 . . . Severe infiltration of lymphocytes into the tissue was observed.

Test [1] deals with coronary arteries of transplanted heart. Put plainly: Test for confirming inhibitory activity against intimal thickening in transplant organ after organ transplantation (mouse heart transplantation model). The class given is in vivo, mice (DBA/2 donor, B10D2 recipient). The text has this: In a transplantation test, 4 to 6-week-old DBA/2 male mice each weighing 20 to 25 g (available from Charles River Laboratories) were used an donor animals, and 4 to 6-week-old B10D2 male mice each weighing 20 to 25 g (ava from Charles River Laboratories) were used as recipient animals. From three days before testing, mice in a control group were fed on a standard diet, and mice in a drug-treated group were given a 0.25% or 0.5% tranilast-containing diet (CE-2). On the day of testing, the heart was excised from a donor mouse and transplanted into the abdomen of a recipient mouse in accordance with the procedures described in the literature (Science, vol. 255, pp. 1125-1127 (1992)). Fourteen and twenty-eight days from the transplantation, the transplanted heart was excised and placed in formalin. Three specimens (thickness: […]) were sliced from different sites of the excised heart. Each slice was stained with Elastica van Geison stain, and the coronary arteries were observed under a microscope to calculate a vascular stenosis ratio according to the following equation: Vascular stenosis ratio (%)=[(area inside of elastica −lumen area)/area inside of elastica]×100

Setting [2] is: 0.25% or 0.5% tranilast-containing diet, mouse heart transplantation.

`COc1ccc(/C=C/C(=O)Nc2ccccc2C(=O)O)cc1OC` [Tranilast, N-(3,4-dimethoxycinnamoyl)anthranililc acid]: the “Infiltration of lymphocytes into the tissue (result in words)” value in the test with transplanted heart (setting [2]) is “alleviates infiltration of lymphocytes into the tissue”. Further, the Degree of rejection in the test on transplanted heart (score 0 (no) to 3 (severe) lymphocyte infiltration, 0.25% tranilast-containing feed, 14-days post-operation, control group 2.07) stood at 1.70; in the test on transplanted heart (score 0 to 3, 0.25% tranilast-containing feed, 28-days post-operation, control group 2.88), 2.38; in the test on transplanted heart (score 0 to 3, 0.5% tranilast-containing feed, 14-days post-operation, control group 2.07), 1.80; in the test with transplanted heart (score 0 to 3, 0.5% tranilast-containing feed, 28-days post-operation, control group 2.88) it was 2.08. The “Inhibition of vascular thickening in a transplanted heart (result in words)” value in test [1] (setting [2]) is “dose-dependently significantly inhibits vascular thickening in a transplanted heart”. The “Vascular Stenosis Ratio (%)” value is given as 55.5% in test [1] (0.25% tranilast-containing feed from 3 days before transplantation, 14-days post-operation, control group 70.3); 61.9% in test [1] (0.25% tranilast-containing feed, 28-days post-operation, control group 73.3); 45.5% in test [1] (0.5% tranilast-containing feed, 14-days post-operation, control group 70.3); 47.7% in test [1] (0.5% tranilast-containing feed, 28-days post-operation, control group 73.3).
